This note sets out measurements from patent US7192941B2, “Estradiol metabolites for the treatment of pulmonary hypertension” (priority 2003, dated 2007).

Common to all, as to assay type: in vivo, male Sprague Dawley rats
In assay [1] the test system is monocrotaline-induced pulmonary hypertension. Put plainly: Monocrotaline-induced pulmonary hypertension in rats: organ weights and hemodynamics (central venous pressure). As to conditions: MCT 60 mg/kg s.c., 10 μg/kg/hour by osmotic minipump, 21 days; for adverse consequences associated with monocrotaline treatment (pulmonary hypertension, increased lung weight, cardiac hypertrophy, right ventricular hypertrophy): FIGS. 1-4. The protocol: (§1) A total of twenty-seven, male Sprague Dawley rats (Charles River, Wilmington, Mass.) (378 +/−12 grams) were utilized in this experiment. Animals were housed in the University of Pittsburgh Medical Center animal care facility (temperature 22° C., light cycle 12 hours, relative humidity 55%). Animals were fed Pro Lab RHM 3000 rodent diet (PMI Nutrition, Inc, St Louis, Mo.) and were given water ad libitum. Institutional guidelines for animal welfare were followed, and the Animal Care and Use Committee approved experimental protocols.
(§2) Animals were randomly assigned to receive subcutaneously saline (1 ml/kg, n=6) or monocrotaline (Sigma, St Louis, Mo.) (MCT, 60 mg/kg subcutaneously) (n=21). Monocrotaline is an agent known to induce pulmonary hypertension. Six hours after the initial injection, control animals were implanted with osmotic minipumps (model 2ML4, Alza, Palo Alto, Calif.) containing vehicle (polyethylene glycol 400, 2.5 μl/hour) (Sigma, St Louis, Mo.), whereas MCT treated animals were implanted with osmotic minipumps containing either vehicle (MCT group; n=7), 2-hydroxyestradiol (Steraloids, Newport, R.I.) (10 μg/kg/hour, MCT+2HE group, n=7) or 2-methoxyestradiol (Steraloids, Newport, R.I.) (10 μg/kg/hour, MCT+2ME group, n=7). Assignment to the MCT, MCT+2HE, and MCT+2ME groups was conducted randomly.
After 21 days animals were weighed, anesthetized with pentobarbital (Sigma, St Louis, Mo.) (50 mg/kg) intraperitoneally, and instrumented for measurements of blood pressure, heart rate and central venous pressure. A PE-50 catheter was inserted into the right jugular vein and advanced approximately one inch and connected to a low-pressure analyzer (LPA, Micro-Med., Inc., Louisville Ky.) for continuous measurements of central venous pressure. […]
Animals were killed by an overdose of anesthetic, and the heart and lungs were removed and weighed. […] Both ventricles were weighed and the right ventricle to left ventricle plus septum ratio was calculated. […]

Assay [2] concerns proliferating cell nuclear antigen (PCNA). Put plainly: Cell proliferation (PCNA immunostaining) in lungs, right ventricle and main pulmonary artery of monocrotaline-treated rats. As to conditions: vs MCT group, 10 μg/kg/hour, 21 days, p<0.001; for inhibition of proliferative response (PCNA staining) in the lungs: FIG. 6A; for inhibition of proliferative response (PCNA staining) in the right ventricle: FIG. 6B; for inhibition of proliferative response (PCNA staining) in the main pulmonary artery: FIG. 6C. The protocol: as §1, §2
The fixed specimens were embedded in paraffin and cut into 4-micron-thick sections for subsequent light microscopy and immunohistochemical analysis.
For the assessment of proliferation, the proliferating cell nuclear antigen (PCNA) was labeled using the primary monoclonal mouse antibody ( 1/200 dilution; Dako, Carpenteria, Calif.) and VEGF expression was measured using a rabbit polyclonal antibody ( 1/50 dilution, Lab Vision, Fremont, Calif.). A polyclonal ED1 antibody (Serotec, Raleigh, N.C.) specific for the monocyte/macrophage cytoplasmatic antigen was used to label vascular (main pulmonary artery) and pulmonary macrophages. For measurement of nonspecific staining, the primary antibody was replaced with phosphate buffered saline (PBS). Sections were washed and further developed according to the directions of the manufacturer (Dako Corporation, Carpinteria, Calif.) using the LSAB2 kit that contained a second antibody linked to […]. Immunochemical staining for PCNA and VEGF were assessed quantitatively with a SAMBA 4000 image analyzer (Image Products International, Chantilly, Va.) using specialized computer software designed for immunostaining analysis (Immuno-Analysis, version 4.1, Microsoft, Richmond, Wash.). The software set density threshold values by averaging several fields on the negative control tissues in which the primary antibody was replaced with PBS. Background subtraction was then performed on every tissue. Ten high power fields (×400) were assessed for staining density, wall thickness or positively marked cells for ED-1. The results for PCNA and VEGF are reported as the labeling index, which represents the percentage of the total examined area that stained positively. Staining intensity of positive areas was also assessed (mean optical density), and a mean quick score was then calculated (mean optical density×labeling index). The inflammatory response data are expressed as the total number of ED1+ cells per ten high power fields
Statistical analyses were performed using the Number Cruncher Statistical software program (Kaysville, Utah). Group comparisons were performed by a one-factor analysis of variance (1-F ANOVA), followed by post-hoc comparison using the Fisher's LSD test. All data are presented as mean ±S.E.M.

The test system of assay [3] is small size pulmonary arteries. Description: Vascular remodeling: wall/media thickness of small size pulmonary arteries (smooth muscle alpha-actin staining) in monocrotaline-treated rats. The settings on record: vs MCT group (wall thickness increased by 87% vs control); 10 μg/kg/hour, 21 days; p<0.001; FIG. 9. How it is done:
as §1
Animals were randomly assigned to receive subcutaneously saline (1 ml/kg, n=6) or monocrotaline (Sigma, St Louis, Mo.) (MCT, 60 mg/kg subcutaneously) (n=21). Monocrotaline is an agent known to induce pulmonary hypertension. […]
For assessment of vascular remodeling, vascular smooth muscle cells in pulmonary arteries were stained with smooth muscle alpha-actin Ab-1 mouse monoclonal antibody ( 1/100 dilution, Lab Vision, Fremont, Calif.). The wall and media thickness were measured in small size pulmonary arteries (50–200 microns) using commercial imaging software. Only vessels with an approximately circular profile were analyzed. […]

Assay [4] has as its system vascular endothelial growth factor (VEGF) expression. Put plainly: VEGF expression (immunohistochemistry) in lungs of monocrotaline-treated rats. As to conditions: MCT rats, 10 μg/kg/hour, 21 days, mean ±S.E.M., Control 34.2±2.2, MCT 42.8±2.6, p=0.482. How it is done: as §1
Animals were randomly assigned to receive subcutaneously saline (1 ml/kg, n=6) or monocrotaline (Sigma, St Louis, Mo.) (MCT, 60 mg/kg subcutaneously) (n=21). […]
For the assessment of proliferation, the proliferating cell nuclear antigen (PCNA) was labeled using the primary monoclonal mouse antibody ( 1/200 dilution; Dako, Carpenteria, Calif.) and VEGF expression was measured using a rabbit polyclonal antibody ( 1/50 dilution, Lab Vision, Fremont, Calif.). […] Immunochemical staining for PCNA and VEGF were assessed quantitatively with a SAMBA 4000 image analyzer (Image Products International, Chantilly, Va.) using specialized computer software designed for immunostaining analysis (Immuno-Analysis, version 4.1, Microsoft, Richmond, Wash.). […] Ten high power fields (×400) were assessed for staining density, wall thickness or positively marked cells for ED-1. […]

For `C[C@]12CC[C@@H]3c4cc(O)c(O)cc4CC[C@H]3[C@@H]1CC[C@@H]2O` [2HE, estra-1,3,5 (10)-triene-2,3,17-triol (17β)], the “adverse consequences associated with monocrotaline treatment (pulmonary hypertension, increased lung weight, cardiac hypertrophy, right ventricular hypertrophy)” value in assay [1] is “did not demonstrate the same level of adverse consequences”. In addition, in assay [2], the “inhibition of proliferative response (PCNA staining) in the lungs” value is given as −60%, the “inhibition of proliferative response (PCNA staining) in the right ventricle” value is −81% and the “inhibition of proliferative response (PCNA staining) in the main pulmonary artery” value is −83%. The “attenuation of MCT-induced hypertrophy of the media (wall thickness, small size pulmonary arteries)” value in assay [3] was −50%. In addition, the “VEGF labeling index (percent of the lung tissue stained positive for VEGF)” value in assay [4] is 37.6±3.3%.

In the case of `COc1cc2c(cc1O)CC[C@@H]1[C@@H]2CC[C@]2(C)[C@@H](O)CC[C@@H]12` [2ME, estra-1,3,5 (10)-triene-2-methoxy-3, 17-diol (17β)], in assay [1] (FIG. 5), the central venous pressure entry was “especially effective at reducing central venous pressure”. Besides, the “adverse consequences associated with monocrotaline treatment (pulmonary hypertension, increased lung weight, cardiac hypertrophy, right ventricular hypertrophy)” value in assay [1] is “did not demonstrate the same level of adverse consequences”. In assay [2], the “inhibition of proliferative response (PCNA staining) in the lungs” value is −70%, the “inhibition of proliferative response (PCNA staining) in the right ventricle” value was −77% and the “inhibition of proliferative response (PCNA staining) in the main pulmonary artery” value is −94%. Also, the “attenuation of MCT-induced hypertrophy of the media (wall thickness, small size pulmonary arteries)” value in assay [3] was −40%. Besides, the “VEGF labeling index (percent of the lung tissue stained positive for VEGF)” value in assay [4] is on record as 37.6±3.9%.
